In the NIST ThermoML archive (doi:10.1021/je049912x):
Numbers after ± are expanded uncertainties.

Assays:
[1] = 101.33 kPa, Liquid
[2] = xn = mol fraction of the nth substance listed; settings: 101.33 kPa, Liquid

## CCc1ccccc1 [ethylbenzene]
[1]; 298.15 K
  mass density: 862 ± 3.3 kg/m3
  speed of sound: 1312 ± 11 m/s
  viscosity: 0.628 ± 0.017 mPa·s
[1]; 308.15 K
  mass density: 855.5 ± 3.6 kg/m3
  speed of sound: 1276 ± 10 m/s
  viscosity: 0.553 ± 0.015 mPa·s

## CCCCO [butan-1-ol]
[1]; 298.15 K
  mass density: 807.7 ± 3 kg/m3
  speed of sound: 1238 ± 10 m/s
  viscosity: 2.564 ± 0.12 mPa·s
[1]; 308.15 K
  mass density: 800.1 ± 3.4 kg/m3
  speed of sound: 1211 ± 10 m/s
  viscosity: 2 ± 0.093 mPa·s

## CCc1ccccc1 [ethylbenzene] + CCO
[2]; 298.15 K, x1 = 0.0712
  mass density: 795 ± 2.9 kg/m3
  speed of sound: 1170 ± 10 m/s
  viscosity: 1.026 ± 0.026 mPa·s
[2]; 298.15 K, x1 = 0.1551
  mass density: 807.2 ± 3 kg/m3
  speed of sound: 1185 ± 10 m/s
  viscosity: 0.947 ± 0.024 mPa·s
[2]; 298.15 K, x1 = 0.2404
  mass density: 817.6 ± 3 kg/m3
  speed of sound: 1203 ± 10 m/s
  viscosity: 0.864 ± 0.022 mPa·s
[2]; 298.15 K, x1 = 0.352
  mass density: 827 ± 3.1 kg/m3
  speed of sound: 1228 ± 10 m/s
  viscosity: 0.789 ± 0.02 mPa·s
[2]; 298.15 K, x1 = 0.4053
  mass density: 836 ± 3.2 kg/m3
  speed of sound: 1235 ± 10 m/s
  viscosity: 0.764 ± 0.02 mPa·s
[2]; 298.15 K, x1 = 0.553
  mass density: 842.3 ± 3.2 kg/m3
  speed of sound: 1261 ± 10 m/s
  viscosity: 0.684 ± 0.018 mPa·s
[2]; 298.15 K, x1 = 0.7382
  mass density: 853.6 ± 3.3 kg/m3
  speed of sound: 1278 ± 10 m/s
  viscosity: 0.639 ± 0.017 mPa·s
[2]; 298.15 K, x1 = 0.8805
  mass density: 858.5 ± 3.3 kg/m3
  speed of sound: 1291 ± 11 m/s
  viscosity: 0.623 ± 0.017 mPa·s
[2]; 298.15 K, x1 = 1
  mass density: 862 ± 3.3 kg/m3
  speed of sound: 1312 ± 11 m/s
  viscosity: 0.628 ± 0.017 mPa·s
[2]; 308.15 K, x1 = 0.0712
  mass density: 789.6 ± 3.3 kg/m3
  speed of sound: 1133 ± 10 m/s
  viscosity: 0.856 ± 0.022 mPa·s
[2]; 308.15 K, x1 = 0.1551
  mass density: 801.6 ± 3.3 kg/m3
  speed of sound: 1155 ± 10 m/s
  viscosity: 0.788 ± 0.02 mPa·s
[2]; 308.15 K, x1 = 0.2404
  mass density: 811.7 ± 3.4 kg/m3
  speed of sound: 1173 ± 10 m/s
  viscosity: 0.719 ± 0.019 mPa·s
[2]; 308.15 K, x1 = 0.352
  mass density: 820 ± 3.4 kg/m3
  speed of sound: 1195 ± 10 m/s
  viscosity: 0.656 ± 0.018 mPa·s
[2]; 308.15 K, x1 = 0.4053
  mass density: 823.2 ± 3.5 kg/m3
  speed of sound: 1203 ± 10 m/s
  viscosity: 0.629 ± 0.017 mPa·s
[2]; 308.15 K, x1 = 0.553
  mass density: 835.8 ± 3.5 kg/m3
  speed of sound: 1223 ± 10 m/s
  viscosity: 0.587 ± 0.016 mPa·s
[2]; 308.15 K, x1 = 0.7382
  mass density: 842.8 ± 3.6 kg/m3
  speed of sound: 1250 ± 10 m/s
  viscosity: 0.548 ± 0.015 mPa·s
[2]; 308.15 K, x1 = 0.8805
  mass density: 851.2 ± 3.6 kg/m3
  speed of sound: 1266 ± 10 m/s
  viscosity: 0.544 ± 0.015 mPa·s
[2]; 308.15 K, x1 = 1
  mass density: 855.5 ± 3.6 kg/m3
  speed of sound: 1276 ± 10 m/s
  viscosity: 0.553 ± 0.015 mPa·s

## CCCCO [butan-1-ol] + CCc1ccccc1
[2]; 298.15 K, x2 = 0
  mass density: 807.7 ± 3 kg/m3
  speed of sound: 1238 ± 10 m/s
  viscosity: 2.564 ± 0.12 mPa·s
[2]; 308.15 K, x2 = 0
  mass density: 800.1 ± 3.4 kg/m3
  speed of sound: 1211 ± 10 m/s
  viscosity: 2 ± 0.093 mPa·s

## CCc1ccccc1 [ethylbenzene] + CCCO
[2]; 298.15 K, x1 = 0.109
  mass density: 811.4 ± 3 kg/m3
  speed of sound: 1227 ± 10 m/s
  viscosity: 1.543 ± 0.038 mPa·s
[2]; 298.15 K, x1 = 0.1677
  mass density: 817.3 ± 3.1 kg/m3
  speed of sound: 1233 ± 10 m/s
  viscosity: 1.375 ± 0.034 mPa·s
[2]; 298.15 K, x1 = 0.3777
  mass density: 828.5 ± 3.1 kg/m3
  speed of sound: 1257 ± 10 m/s
  viscosity: 0.976 ± 0.025 mPa·s
[2]; 298.15 K, x1 = 0.5006
  mass density: 837.9 ± 3.1 kg/m3
  speed of sound: 1266 ± 10 m/s
  viscosity: 0.839 ± 0.022 mPa·s
[2]; 298.15 K, x1 = 0.6429
  mass density: 845.1 ± 3.2 kg/m3
  speed of sound: 1277 ± 10 m/s
  viscosity: 0.712 ± 0.019 mPa·s
[2]; 298.15 K, x1 = 0.8074
  mass density: 853.3 ± 3.3 kg/m3
  speed of sound: 1287 ± 11 m/s
  viscosity: 0.638 ± 0.017 mPa·s
[2]; 298.15 K, x1 = 0.8951
  mass density: 857 ± 3.3 kg/m3
  speed of sound: 1299 ± 11 m/s
  viscosity: 0.606 ± 0.017 mPa·s
[2]; 298.15 K, x1 = 1
  mass density: 862 ± 3.3 kg/m3
  speed of sound: 1312 ± 11 m/s
  viscosity: 0.628 ± 0.017 mPa·s
[2]; 308.15 K, x1 = 0.109
  mass density: 803.7 ± 3.4 kg/m3
  speed of sound: 1194 ± 10 m/s
  viscosity: 1.226 ± 0.031 mPa·s
[2]; 308.15 K, x1 = 0.1677
  mass density: 807.1 ± 3.4 kg/m3
  speed of sound: 1202 ± 10 m/s
  viscosity: 1.098 ± 0.028 mPa·s
[2]; 308.15 K, x1 = 0.3777
  mass density: 823.5 ± 3.5 kg/m3
  speed of sound: 1224 ± 10 m/s
  viscosity: 0.809 ± 0.021 mPa·s
[2]; 308.15 K, x1 = 0.5006
  mass density: 833.1 ± 3.5 kg/m3
  speed of sound: 1233 ± 10 m/s
  viscosity: 0.702 ± 0.019 mPa·s
[2]; 308.15 K, x1 = 0.6429
  mass density: 839 ± 3.5 kg/m3
  speed of sound: 1245 ± 10 m/s
  viscosity: 0.616 ± 0.017 mPa·s
[2]; 308.15 K, x1 = 0.8074
  mass density: 844.3 ± 3.6 kg/m3
  speed of sound: 1258 ± 10 m/s
  viscosity: 0.562 ± 0.016 mPa·s
[2]; 308.15 K, x1 = 0.8951
  mass density: 850 ± 3.6 kg/m3
  speed of sound: 1264 ± 10 m/s
  viscosity: 0.542 ± 0.015 mPa·s
[2]; 308.15 K, x1 = 1
  mass density: 855.5 ± 3.6 kg/m3
  speed of sound: 1276 ± 10 m/s
  viscosity: 0.553 ± 0.015 mPa·s

## CCCO [propan-1-ol] + CCc1ccccc1
[2]; 298.15 K, x2 = 0
  mass density: 799.6 ± 3 kg/m3
  speed of sound: 1213 ± 10 m/s
  viscosity: 2.042 ± 0.049 mPa·s
[2]; 308.15 K, x2 = 0
  mass density: 792 ± 3.3 kg/m3
  speed of sound: 1182 ± 10 m/s
  viscosity: 1.565 ± 0.039 mPa·s

## CCO [ethanol]
[1]; 298.15 K
  mass density: 785.5 ± 2.9 kg/m3
  speed of sound: 1160 ± 10 m/s
  viscosity: 1.117 ± 0.027 mPa·s
[1]; 308.15 K
  mass density: 776.3 ± 3.2 kg/m3
  speed of sound: 1112 ± 9 m/s
  viscosity: 0.935 ± 0.024 mPa·s

## CCCO [propan-1-ol]
[1]; 298.15 K
  mass density: 799.6 ± 3 kg/m3
  speed of sound: 1213 ± 10 m/s
  viscosity: 2.042 ± 0.049 mPa·s
[1]; 308.15 K
  mass density: 792 ± 3.3 kg/m3
  speed of sound: 1182 ± 10 m/s
  viscosity: 1.565 ± 0.039 mPa·s

## CCO [ethanol] + CCc1ccccc1
[2]; 298.15 K, x2 = 0
  mass density: 785.5 ± 2.9 kg/m3
  speed of sound: 1160 ± 10 m/s
  viscosity: 1.117 ± 0.027 mPa·s
[2]; 308.15 K, x2 = 0
  mass density: 776.3 ± 3.2 kg/m3
  speed of sound: 1112 ± 9 m/s
  viscosity: 0.935 ± 0.024 mPa·s

## CCc1ccccc1 [ethylbenzene] + CCCCO
[2]; 298.15 K, x1 = 0.1035
  mass density: 816.7 ± 3.1 kg/m3
  speed of sound: 1246 ± 10 m/s
  viscosity: 1.985 ± 0.092 mPa·s
[2]; 298.15 K, x1 = 0.205
  mass density: 821.2 ± 3.1 kg/m3
  speed of sound: 1256 ± 10 m/s
  viscosity: 1.565 ± 0.074 mPa·s
[2]; 298.15 K, x1 = 0.3221
  mass density: 828.1 ± 3.1 kg/m3
  speed of sound: 1264 ± 10 m/s
  viscosity: 1.236 ± 0.06 mPa·s
[2]; 298.15 K, x1 = 0.365
  mass density: 831.1 ± 3.1 kg/m3
  speed of sound: 1267 ± 10 m/s
  viscosity: 1.147 ± 0.056 mPa·s
[2]; 298.15 K, x1 = 0.5071
  mass density: 839.6 ± 3.2 kg/m3
  speed of sound: 1277 ± 10 m/s
  viscosity: 0.916 ± 0.046 mPa·s
[2]; 298.15 K, x1 = 0.6494
  mass density: 845.7 ± 3.2 kg/m3
  speed of sound: 1288 ± 11 m/s
  viscosity: 0.764 ± 0.039 mPa·s
[2]; 298.15 K, x1 = 0.8136
  mass density: 854.5 ± 3.3 kg/m3
  speed of sound: 1301 ± 11 m/s
  viscosity: 0.693 ± 0.036 mPa·s
[2]; 298.15 K, x1 = 0.91
  mass density: 858.6 ± 3.3 kg/m3
  speed of sound: 1307 ± 11 m/s
  viscosity: 0.649 ± 0.034 mPa·s
[2]; 298.15 K, x1 = 1
  mass density: 862 ± 3.3 kg/m3
  speed of sound: 1312 ± 11 m/s
  viscosity: 0.628 ± 0.034 mPa·s
[2]; 308.15 K, x1 = 0.1035
  mass density: 808.9 ± 3.4 kg/m3
  speed of sound: 1217 ± 10 m/s
  viscosity: 1.569 ± 0.074 mPa·s
[2]; 308.15 K, x1 = 0.205
  mass density: 815.3 ± 3.4 kg/m3
  speed of sound: 1223 ± 10 m/s
  viscosity: 1.253 ± 0.061 mPa·s
[2]; 308.15 K, x1 = 0.3221
  mass density: 822 ± 3.5 kg/m3
  speed of sound: 1229 ± 10 m/s
[2]; 308.15 K, x1 = 0.365
  mass density: 824.5 ± 3.5 kg/m3
  speed of sound: 1231 ± 10 m/s
  viscosity: 0.941 ± 0.047 mPa·s
[2]; 308.15 K, x1 = 0.5071
  mass density: 832.1 ± 3.5 kg/m3
  speed of sound: 1239 ± 10 m/s
  viscosity: 0.765 ± 0.04 mPa·s
[2]; 308.15 K, x1 = 0.6494
  mass density: 839.1 ± 3.5 kg/m3
  speed of sound: 1249 ± 10 m/s
  viscosity: 0.651 ± 0.035 mPa·s
[2]; 308.15 K, x1 = 0.8136
  mass density: 846 ± 3.6 kg/m3
  speed of sound: 1262 ± 10 m/s
  viscosity: 0.577 ± 0.031 mPa·s
[2]; 308.15 K, x1 = 0.91
  mass density: 852.6 ± 3.6 kg/m3
  speed of sound: 1268 ± 10 m/s
  viscosity: 0.566 ± 0.031 mPa·s
[2]; 308.15 K, x1 = 1
  mass density: 855.5 ± 3.6 kg/m3
  speed of sound: 1276 ± 10 m/s
  viscosity: 0.553 ± 0.03 mPa·s
